Data published in ChEMBL document CHEMBL6074686 (Eur J Med Chem, 2025).
Calls of active or inactive are those of the source. The calls are words filed in the database; no cut-off is given here.

Experiments:
SK-OV-3 [1] = assay: Induction of apoptosis in human SK-OV-3 cells assessed as upregulation of cleaved-caspase-3 expression incubated for 24 hrs by Western blotting analysis; format: functional, cell-based; conditions: dose 25-100 nM
SK-OV-3 [2] = assay: Inhibition of cell migration in human SK-OV-3 cells assessed as ratio of migrated cells at 2.5 nM incubated for 24 hrs by Transwell assay (reference value: 100 %); format: functional; parameters: scale not given: the % may be the effect or the level left
SK-OV-3 [3] = assay: Induction of apoptosis in human SK-OV-3 cells assessed as increase in apoptotic cells at 2.5 to 40 nM by IncuCyte live-cell imaging analysis; format: functional, cell-based; conditions: dose 2.5-40 nM, time lower 24.0 hrs, time upper […]
SK-OV-3 [4] = assay: Inhibition of cell migration in human SK-OV-3 cells assessed as reduction in wound closure at 6.25 nM incubated for 24 hrs by wound healing assay (reference value: 21.8 +/- 7.6%); format: functional; conditions: SK-OV-3, 24 h, values are per cent of control
SK-OV-3 [5] = assay: Induction of cell cycle arrest in human SK-OV-3 cells assessed as upregulation of Cdc-2 expression at 25 to 50 nM incubated for 24 hrs by Western blotting analysis; format: functional, cell-based; conditions: dose 25-50 nM
[6] = Toxicity in female BALB/c nude mouse xenografted with human SK-OV-3 cells assessed as animal death at 15 mg/kg, administered via tail vein for 5 days and measured daily; format: organism-based; conditions: in vivo, iv, 120 h, time 5 day
SK-OV-3 [7] = assay: Inhibition of cell migration in human SK-OV-3 cells assessed as wound closure ratio at 25 nM incubated for 24 hrs by wound healing assay (reference value: 100%); format: functional; parameters: scale not given: the % may be the effect or the level left
SK-OV-3 [8] = assay: Induction of apoptosis in human SK-OV-3 cells assessed as downregulation of cleaved-PARP expression at 100 nM incubated for 24 hrs by Western blotting analysis; format: functional, cell-based
SK-OV-3 [9] = assay: Antitumor activity against human SK-OV-3 cells xenografted in female BALB/c nude mouse assessed as tumor growth inhibition at 10 mg/kg, […] via tail vein once every 2 to 3 days; format: functional; conditions: time 2-3 day, read-out: TGI
MCF7 [10] = assay: Inhibition of cell migration in human MCF7 cells assessed as area of migrated cells at 6.25 nM incubated for 24 hrs by crystal violet staining based inverted microscopic analysis (reference value: 18.5 +/- 0.3 mm^3); format: functional
SK-OV-3 [11] = assay: Antitumor activity against human SK-OV-3 cells xenografted xenografted in female BALB/c nude mouse assessed as downregulation of Bcl-2 expression level in tumor at 5 to 10 mg/kg, […] via tail vein once every 2 to 3 days by immunohistochemistry analysis; format: functional, organism-based; conditions: dose 5-10 mg/kg, time 2-3 day
MCF7 [12] = assay: Inhibition of cell migration in human MCF7 cells assessed as wound closure at 10 nM incubated for 24 hrs by wound healing assay (reference value: 44.5 +/- 8.8%); format: functional; parameters: scale not given: the % may be the effect or the level left
SK-OV-3 [13] = assay: Antitumor activity against human SK-OV-3 cells assessed as reduction in cell viability incubated for 72 hrs by CCK8 assay; format: functional, cell-based; conditions: SK-OV-3, 72 h
SK-OV-3 [14] = assay: Induction of cell cycle arrest in human SK-OV-3 cells assessed as upregulation of Cyclin-B1 expression at 25 to 50 nM incubated for 24 hrs by Western blotting analysis; format: functional, cell-based; conditions: dose 25-50 nM
MCF7 [15] = assay: Antitumor activity against human MCF7 cells assessed as reduction in cell viability incubated for 72 hrs by CCK8 assay; format: functional, cell-based; conditions: MCF7, 72 h
SK-OV-3 [16] = assay: Antitumor activity against human SK-OV-3 cells xenografted xenografted in female BALB/c nude mouse assessed as downregulation of CD-31 expression level in tumor at 10 mg/kg, […] via tail vein once every 2 to 3 days by immunohistochemistry analysis; format: functional, organism-based; conditions: time 2-3 day
SK-OV-3 [17] = assay: Induction of cell cycle arrest in human SK-OV-3 cells assessed as downregulation of Cdc-25c expression incubated for 24 hrs by Western blotting analysis; format: functional, cell-based; conditions: dose 25-100 nM
SK-OV-3 [18] = assay: Inhibition of cell migration in human SK-OV-3 cells assessed as wound closure ratio at 12.5 nM incubated for 24 hrs by wound healing assay (reference value: 100%); format: functional; parameters: scale not given: the % may be the effect or the level left
SK-OV-3 [19] = assay: Inhibition of cell migration in human SK-OV-3 cells assessed as area of migrated cells at 2.5 nM incubated for 24 hrs by crystal violet staining based inverted microscopic analysis (reference value: 30.1 +/- 1.3 mm^3); format: functional
MCF7 [20] = assay: Inhibition of cell migration in human MCF7 cells assessed as wound closure at 1.25 nM incubated for 24 hrs by wound healing assay (reference value: 44.5 +/- 8.8%); format: functional; parameters: scale not given: the % may be the effect or the level left
Tubulin (Homo sapiens) = Tubulin (Homo sapiens) (UniProt P68371+Q9H4B7+P0DPH7+P68366+Q13509+Q71U36+P04350+Q3ZCM7+P07437+P68363+Q9BQE3+Q6PEY2+Q13885+Q9BVA1+Q9BUF5); assay: Inhibition of tubulin polymerization (unknown origin) assessed as reduction in optical density at 340 nm at 20 uM relative to control; format: protein-complex assay
MCF7 [21] = assay: Inhibition of cell migration in human MCF7 cells assessed as wound closure at 5 nM incubated for 24 hrs by wound healing assay (reference value: 44.5 +/- 8.8%); format: functional; parameters: scale not given: the % may be the effect or the level left
[22] = Toxicity in female BALB/c nude mouse xenografted with human SK-OV-3 cells assessed as pathological changes in lung at 5 to 10 mg/kg, […] via tail vein once every 2 to 3 days by H and E staining based analysis; format: organism-based; conditions: in vivo, dose lower 5 mg/kg, time lower 2 day, dose upper 10 mg/kg, time upper 3 day
A549 = assay: Induction of cell cycle arrest in human A549 cells assessed as downregulation of Cdc-25c expression incubated for 24 hrs by Western blotting analysis; format: functional, cell-based; conditions: dose 25-100 nM
SK-OV-3 [23] = assay: Inhibition of cell migration in human SK-OV-3 cells assessed as ratio of migrated cells at 10 nM incubated for 24 hrs by Transwell assay (reference value: 100 %); format: functional; parameters: scale not given: the % may be the effect or the level left
SK-OV-3 [24] = assay: Induction of cell cycle arrest in human SK-OV-3 cells assessed as downregulation of Cdc-2 expression at 100 nM incubated for 24 hrs by Western blotting analysis; format: functional, cell-based
SK-OV-3 [25] = assay: Inhibition of cell migration in human SK-OV-3 cells assessed as wound closure ratio at 6.25 nM incubated for 24 hrs by wound healing assay (reference value: 100%); format: functional; parameters: scale not given: the % may be the effect or the level left
MDA-MB-231 = assay: Antitumor activity against human MDA-MB-231 cells assessed as reduction in cell viability incubated for 72 hrs by CCK8 assay; conditions: MDA-MB-231, 72 h
MCF7 [26] = assay: Induction of apoptosis in human MCF7 cells assessed as downregulation of cleaved-PARP expression at 100 nM incubated for 24 hrs by Western blotting analysis; format: functional, cell-based
SK-OV-3 [27] = assay: Inhibition of cell migration in human SK-OV-3 cells assessed as ratio of migrated cells at 5 nM incubated for 24 hrs by Transwell assay (reference value: 100 %); format: functional; parameters: scale not given: the % may be the effect or the level left
MCF7 [28] = assay: Inhibition of cell migration in human MCF7 cells assessed as increase in cell density at 20 nM incubated for 24 hrs by wound healing assay; format: functional, cell-based
SK-OV-3 [29] = assay: Inhibition of cell migration in human SK-OV-3 cells assessed as area of migrated cells at 10 nM incubated for 24 hrs by crystal violet staining based inverted microscopic analysis (reference value: 30.1 +/- 1.3 mm^3); format: functional
[30] = Toxicity in female BALB/c nude mouse xenografted with human SK-OV-3 cells assessed as effect on physiological status at 15 mg/kg, administered via tail vein for 5 days and measured daily; format: organism-based; conditions: in vivo, iv, 120 h, time 5 day

## CNc1nc(N2CCCc3cc(OC)ccc32)c2cc(F)ccc2n1
SK-OV-3 [1]
  Activity: Dose-dependent-effect
SK-OV-3 [2]
  Activity: 62.9%
SK-OV-3 [3]
  Activity: Time-dependent-effect
SK-OV-3 [4]
  response, % of control at 0.00625 µM: 18.4%
SK-OV-3 [5]
  Activity: Active
[6]
  Activity: Non-toxic
SK-OV-3 [7]
  Activity: 51.4%
SK-OV-3 [8]
  Activity: inactive
SK-OV-3 [9]
  inhibition in vivo at 10 mg/kg: 46.2%
MCF7 [10]
  Activity: 16.4 mm3
SK-OV-3 [11]
  Activity: Active
MCF7 [12]
  Activity: 46.5%
SK-OV-3 [13]
  IC50: 0.8 nM
SK-OV-3 [14]
  Activity: inactive
MCF7 [15]
  IC50: 0.4 nM
SK-OV-3 [16]
  Activity: Active
SK-OV-3 [17]
  Activity: Dose-dependent-effect
SK-OV-3 [18]
  Activity: 65.8%
SK-OV-3 [19]
  Activity: 18.9 mm3
MCF7 [20]
  Activity: 47%
Tubulin (Homo sapiens)
  inhibition: 100%
MCF7 [21]
  Activity: 43.3%
[22]
  Activity: Non-toxic
A549
  Activity: Dose-dependent-effect
SK-OV-3 [23]
  Activity: 22.7%
SK-OV-3 [24]
  Activity: inactive
SK-OV-3 [25]
  Activity: 84.3%
MDA-MB-231
  IC50: 1 nM
MCF7 [26]
  Activity: inactive
SK-OV-3 [27]
  Activity: 48.8%
MCF7 [28]
  inhibition: Active; Increase In Cell Density Was Notably Slowed Down
SK-OV-3 [29]
  Activity: 6.8 mm3
[30]
  Activity: Toxic
